Measured values: ChEMBL document CHEMBL1909046, “DrugMatrix in vitro pharmacology data”

Assays:
Estrogen receptor beta = Estrogen receptor beta (Homo sapiens, UniProt Q92731); conditions: sf9; further: in other assays of this panel Not Active means under 50% inhibition at 10 µM
[1] = target: T1, Neuropeptide Y receptor type 1 (Homo sapiens, UniProt P25929); assay type: cell membranes, Membrane; conditions: sk-n-mc; further: in other assays of this panel Not Active means under 50% inhibition at 10 µM
T1 sequence (P25929 whole entry): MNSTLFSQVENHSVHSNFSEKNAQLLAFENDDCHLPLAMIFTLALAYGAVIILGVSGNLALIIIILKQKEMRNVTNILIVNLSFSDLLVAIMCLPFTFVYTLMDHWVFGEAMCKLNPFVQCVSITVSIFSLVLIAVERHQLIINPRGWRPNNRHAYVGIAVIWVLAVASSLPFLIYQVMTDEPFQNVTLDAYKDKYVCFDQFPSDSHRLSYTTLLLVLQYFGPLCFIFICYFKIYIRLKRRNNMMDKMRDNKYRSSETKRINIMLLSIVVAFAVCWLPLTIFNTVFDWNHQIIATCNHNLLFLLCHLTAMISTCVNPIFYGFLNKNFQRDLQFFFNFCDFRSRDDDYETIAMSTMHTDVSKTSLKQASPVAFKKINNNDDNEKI

D(4) dopamine receptor = target: T2, D(4) dopamine receptor (Homo sapiens, UniProt P21917); assay: DRUGMATRIX: Dopamine D4.2 radioligand binding (ligand: [3H] Spiperone); assay type: cell membranes, CHO-K1, Membrane; conditions: cho-k1; Not Active = under 50% inhibition at 10 µM
T2 sequence (P21917 whole entry): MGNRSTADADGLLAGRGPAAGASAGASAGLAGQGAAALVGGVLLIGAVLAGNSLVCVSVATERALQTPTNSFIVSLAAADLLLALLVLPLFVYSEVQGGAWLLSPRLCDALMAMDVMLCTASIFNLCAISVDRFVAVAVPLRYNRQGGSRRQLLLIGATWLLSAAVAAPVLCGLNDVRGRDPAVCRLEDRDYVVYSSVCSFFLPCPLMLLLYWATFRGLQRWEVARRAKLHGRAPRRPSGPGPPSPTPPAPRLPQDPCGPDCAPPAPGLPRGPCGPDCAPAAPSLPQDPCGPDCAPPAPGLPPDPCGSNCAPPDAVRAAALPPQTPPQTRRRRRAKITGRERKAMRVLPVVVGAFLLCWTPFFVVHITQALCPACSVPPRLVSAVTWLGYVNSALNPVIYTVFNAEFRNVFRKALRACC

Cytochrome P450 2A6 = target: T3, Cytochrome P450 2A6 (Homo sapiens, UniProt P11509); conditions: bti-tn-5b1-4; further: in other assays of this panel Not Active means under 50% inhibition at 10 µM
T3 sequence (P11509 whole entry): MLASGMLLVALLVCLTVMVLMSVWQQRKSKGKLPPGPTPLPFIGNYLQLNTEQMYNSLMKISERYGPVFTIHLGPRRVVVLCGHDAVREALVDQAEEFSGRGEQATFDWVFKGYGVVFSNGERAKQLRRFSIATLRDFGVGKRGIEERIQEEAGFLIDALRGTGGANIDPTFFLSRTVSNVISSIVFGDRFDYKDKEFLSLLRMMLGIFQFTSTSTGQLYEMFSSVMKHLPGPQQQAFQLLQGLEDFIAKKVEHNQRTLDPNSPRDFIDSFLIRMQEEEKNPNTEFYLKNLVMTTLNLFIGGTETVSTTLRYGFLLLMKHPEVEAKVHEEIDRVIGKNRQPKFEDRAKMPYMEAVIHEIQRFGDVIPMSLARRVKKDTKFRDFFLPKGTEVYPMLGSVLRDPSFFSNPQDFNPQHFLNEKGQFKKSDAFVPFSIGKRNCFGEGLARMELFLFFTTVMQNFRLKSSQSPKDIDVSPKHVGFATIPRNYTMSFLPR

[2] = DRUGMATRIX: GABAA, Chloride Channel, TBOB radioligand binding (ligand: [3H] TBOB); assay type: cell membranes, Rattus norvegicus, Wistar, Cerebral cortex, Membrane; conditions: Not Active = under 50% inhibition at 10 µM
Vasopressin V1a receptor = Vasopressin V1a receptor (Homo sapiens, UniProt P37288); assay type: cell membranes, Membrane; conditions: hek293; further: in other assays of this panel Not Active means under 50% inhibition at 10 µM
Sequence of Vasopressin V1a receptor (P37288 whole entry): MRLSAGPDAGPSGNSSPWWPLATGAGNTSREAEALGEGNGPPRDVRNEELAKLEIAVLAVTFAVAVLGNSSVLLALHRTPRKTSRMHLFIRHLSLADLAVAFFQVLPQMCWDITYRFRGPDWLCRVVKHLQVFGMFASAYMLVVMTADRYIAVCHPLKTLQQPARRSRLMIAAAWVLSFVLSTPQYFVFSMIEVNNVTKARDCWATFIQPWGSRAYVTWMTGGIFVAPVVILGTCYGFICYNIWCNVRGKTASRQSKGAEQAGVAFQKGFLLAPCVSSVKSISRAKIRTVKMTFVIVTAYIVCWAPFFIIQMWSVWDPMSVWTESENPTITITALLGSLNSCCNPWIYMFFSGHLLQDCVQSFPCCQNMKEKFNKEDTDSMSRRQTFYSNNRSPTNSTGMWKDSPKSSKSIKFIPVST

[3] = target: 5-hydroxytryptamine receptor 4 (Cavia porcellus, UniProt O70528); assay type: cell membranes, Dunkin-Hartley, Striatum, Membrane; further: in other assays of this panel Not Active means under 50% inhibition at 10 µM
Sequence of 5-hydroxytryptamine receptor 4 (O70528 whole entry): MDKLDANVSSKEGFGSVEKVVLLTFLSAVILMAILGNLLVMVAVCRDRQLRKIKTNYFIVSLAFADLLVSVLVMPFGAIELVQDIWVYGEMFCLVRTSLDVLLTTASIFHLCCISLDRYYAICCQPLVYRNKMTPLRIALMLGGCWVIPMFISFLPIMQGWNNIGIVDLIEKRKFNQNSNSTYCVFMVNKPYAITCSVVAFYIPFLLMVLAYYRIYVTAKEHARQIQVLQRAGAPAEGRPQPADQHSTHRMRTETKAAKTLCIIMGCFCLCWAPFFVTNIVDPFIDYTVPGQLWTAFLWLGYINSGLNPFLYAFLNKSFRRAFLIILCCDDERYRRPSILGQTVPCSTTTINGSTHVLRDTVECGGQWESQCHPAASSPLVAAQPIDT

Thromboxane-A synthase = target: T4, Thromboxane-A synthase (Homo sapiens, UniProt P24557); assay: biochemical; assay type: tissue-based, Platelet; conditions: platelet
T4 sequence (P24557 whole entry): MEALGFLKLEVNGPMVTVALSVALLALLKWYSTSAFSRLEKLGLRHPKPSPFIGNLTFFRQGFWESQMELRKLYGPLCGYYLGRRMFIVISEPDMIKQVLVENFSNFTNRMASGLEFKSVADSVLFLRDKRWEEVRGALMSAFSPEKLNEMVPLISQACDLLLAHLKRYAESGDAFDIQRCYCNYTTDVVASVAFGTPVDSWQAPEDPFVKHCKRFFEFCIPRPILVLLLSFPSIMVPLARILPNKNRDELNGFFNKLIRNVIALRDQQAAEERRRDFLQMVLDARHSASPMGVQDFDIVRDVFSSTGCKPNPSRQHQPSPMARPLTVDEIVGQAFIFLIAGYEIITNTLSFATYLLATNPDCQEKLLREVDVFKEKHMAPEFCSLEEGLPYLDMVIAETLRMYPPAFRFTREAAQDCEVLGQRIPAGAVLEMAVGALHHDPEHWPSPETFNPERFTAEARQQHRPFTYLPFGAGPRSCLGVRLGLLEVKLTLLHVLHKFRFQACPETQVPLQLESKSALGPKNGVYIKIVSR

Sequence of Estrogen receptor beta (Q92731 whole entry): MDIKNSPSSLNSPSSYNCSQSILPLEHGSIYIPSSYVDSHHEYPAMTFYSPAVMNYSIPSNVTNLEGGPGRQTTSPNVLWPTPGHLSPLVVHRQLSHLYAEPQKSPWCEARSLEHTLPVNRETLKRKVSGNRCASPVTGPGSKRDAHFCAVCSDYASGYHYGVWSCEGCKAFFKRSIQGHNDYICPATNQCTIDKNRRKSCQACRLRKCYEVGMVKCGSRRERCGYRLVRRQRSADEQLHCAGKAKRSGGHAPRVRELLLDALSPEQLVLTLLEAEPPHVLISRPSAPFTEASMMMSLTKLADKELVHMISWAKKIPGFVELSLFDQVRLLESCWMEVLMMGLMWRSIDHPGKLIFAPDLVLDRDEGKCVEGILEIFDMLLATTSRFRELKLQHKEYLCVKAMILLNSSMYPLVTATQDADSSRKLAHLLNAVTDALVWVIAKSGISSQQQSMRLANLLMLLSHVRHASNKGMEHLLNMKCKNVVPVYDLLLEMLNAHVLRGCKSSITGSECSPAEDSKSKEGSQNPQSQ

CCCCOc1cc(CC2CNC(=O)N2)ccc1OC (configuration not stated) [RO-201724]
Not Active: IC50 (Estrogen receptor beta) | IC50 [1] | IC50 (D(4) dopamine receptor) | IC50 (Cytochrome P450 2A6) | Ki (Cytochrome P450 2A6) | IC50 [2] | Ki [2] | IC50 (Vasopressin V1a receptor) | IC50 [3] | IC50 (Thromboxane-A synthase)

CC[C@@H](C(=O)[C@@H](C)[C@@H](O)[C@H](C)[C@@H]1O[C@@H]([C@@H](CC)C(=O)O)CC[C@@H]1C)[C@H]1O[C@]2(C=C[C@@H](O)[C@]3(CC[C@@](C)([C@H]4CC[C@](O)(CC)[C@H](C)O4)O3)O2)[C@H](C)C[C@@H]1C [SALINOMYCIN]
Not Active: IC50 (Estrogen receptor beta) | IC50 [1] | IC50 (D(4) dopamine receptor) | IC50 (Cytochrome P450 2A6) | Ki (Cytochrome P450 2A6) | IC50 [2] | Ki [2] | IC50 (Vasopressin V1a receptor) | IC50 [3] | IC50 (Thromboxane-A synthase)

CC(C)NCC(O)c1ccc(NS(C)(=O)=O)cc1 (configuration not stated) [SOTALOL]
Not Active: IC50 (Estrogen receptor beta) | IC50 [1] | IC50 (D(4) dopamine receptor) | IC50 (Cytochrome P450 2A6) | Ki (Cytochrome P450 2A6) | IC50 [2] | Ki [2] | IC50 (Vasopressin V1a receptor) | IC50 [3] | IC50 (Thromboxane-A synthase)

NC(=O)N1C(=O)/C(=C(\O)c2cccs2)c2cc(Cl)ccc21 [TENIDAP]
Not Active: IC50 (Estrogen receptor beta) | IC50 [1] | IC50 (D(4) dopamine receptor) | IC50 (Cytochrome P450 2A6) | Ki (Cytochrome P450 2A6) | IC50 [2] | Ki [2] | IC50 (Vasopressin V1a receptor) | IC50 [3] | IC50 (Thromboxane-A synthase)

COc1cc2nc(N3CCN(C(=O)C4CCCO4)CC3)nc(N)c2cc1OC (configuration not stated) [TERAZOSIN]
Not Active: IC50 (Estrogen receptor beta) | IC50 [1] | IC50 (D(4) dopamine receptor) | IC50 (Cytochrome P450 2A6) | Ki (Cytochrome P450 2A6) | IC50 [2] | Ki [2] | IC50 (Vasopressin V1a receptor) | IC50 [3] | IC50 (Thromboxane-A synthase)

CN(C/C=C/C#CC(C)(C)C)Cc1cccc2ccccc12 [TERBINAFINE]
Not Active: IC50 (Estrogen receptor beta) | IC50 [1] | IC50 (D(4) dopamine receptor) | IC50 (Cytochrome P450 2A6) | Ki (Cytochrome P450 2A6) | IC50 [2] | Ki [2] | IC50 (Vasopressin V1a receptor) | IC50 [3] | IC50 (Thromboxane-A synthase)

CCN(CC)CCNC(=O)c1cc(S(C)(=O)=O)ccc1OC [TIAPRIDE]
Not Active: IC50 (Estrogen receptor beta) | IC50 [1] | IC50 (D(4) dopamine receptor) | IC50 (Cytochrome P450 2A6) | Ki (Cytochrome P450 2A6) | IC50 [2] | Ki [2] | IC50 (Vasopressin V1a receptor) | IC50 [3] | IC50 (Thromboxane-A synthase)

Clc1ccccc1CN1CCc2sccc2C1 [TICLOPIDINE]
Not Active: IC50 (Estrogen receptor beta) | IC50 [1] | IC50 (D(4) dopamine receptor) | IC50 (Cytochrome P450 2A6) | Ki (Cytochrome P450 2A6) | IC50 [2] | Ki [2] | IC50 (Vasopressin V1a receptor) | IC50 [3] | IC50 (Thromboxane-A synthase)

NC1CCN(c2nc3c(cc2F)c(=O)c(C(=O)O)cn3-c2ccc(F)cc2F)C1 (configuration not stated) [TOSUFLOXACIN]
Not Active: IC50 (Estrogen receptor beta) | IC50 [1] | IC50 (D(4) dopamine receptor) | IC50 (Cytochrome P450 2A6) | Ki (Cytochrome P450 2A6) | IC50 [2] | Ki [2] | IC50 (Vasopressin V1a receptor) | IC50 [3] | IC50 (Thromboxane-A synthase)

O=C(Nc1ccc(Br)cc1)c1cc(Br)cc(Br)c1O [TRIBROMSALAN]
Not Active: IC50 (Estrogen receptor beta) | IC50 [1] | IC50 (D(4) dopamine receptor) | IC50 (Cytochrome P450 2A6) | Ki (Cytochrome P450 2A6) | IC50 [2] | Ki [2] | IC50 (Vasopressin V1a receptor) | IC50 [3] | IC50 (Thromboxane-A synthase)

CC(c1cc2ccccc2s1)N(O)C(N)=O (configuration not stated) [ZILEUTON]
Not Active: IC50 (Estrogen receptor beta) | IC50 [1] | IC50 (D(4) dopamine receptor) | IC50 (Cytochrome P450 2A6) | Ki (Cytochrome P450 2A6) | IC50 [2] | Ki [2] | IC50 (Vasopressin V1a receptor) | IC50 [3] | IC50 (Thromboxane-A synthase)

MANGANESE CHLORIDE ANHYDROUS
Not Active: IC50 (Estrogen receptor beta) | Ki (Estrogen receptor beta) | IC50 [1] | Ki [1] | IC50 (D(4) dopamine receptor) | Ki (D(4) dopamine receptor) | IC50 (Cytochrome P450 2A6) | Ki (Cytochrome P450 2A6) | IC50 [2] | Ki [2] | IC50 (Vasopressin V1a receptor) | Ki (Vasopressin V1a receptor) | IC50 [3] | Ki [3] | IC50 (Thromboxane-A synthase) | Ki (Thromboxane-A synthase)

SODIUM ORTHOVANAD
Not Active: IC50 (Estrogen receptor beta) | Ki (Estrogen receptor beta) | IC50 [1] | Ki [1] | IC50 (D(4) dopamine receptor) | Ki (D(4) dopamine receptor) | IC50 (Cytochrome P450 2A6) | Ki (Cytochrome P450 2A6) | IC50 [2] | Ki [2] | IC50 (Vasopressin V1a receptor) | Ki (Vasopressin V1a receptor) | IC50 [3] | Ki [3] | IC50 (Thromboxane-A synthase) | Ki (Thromboxane-A synthase)
